Results as given in patent publication US8410112B2, “Compounds useful as inhibitors of ATR kinase” (Vertex Pharmaceuticals Incorporated, priority 2008, dated 2013).

biological target: T1, full-length ATR (Homo sapiens, UniProt Q13535); assay: ATR Inhibition Assay (radioactive-phosphate incorporation); type: biochemical; conditions: Ki(app); 5 nM full-length ATR, 10 μM ATP, 800 μM target peptide, 25° C.
T1 construct: in the presence of 5 nM full-length ATR
Method in brief: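 Buffer was 50 mM Tris/HCl pH 7.5, 10 mM MgCl2, 1 mM DTT, with 5 nM enzyme, 10 μM [γ-33P]ATP and 800 μM target peptide at 25 °C. Compound was pre-incubated 10 min before ATP start, and the reaction was stopped after 24 h. Phosphocellulose filter capture; Ki(app) came from non-linear regression of background-corrected initial rates.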

T1 sequence (Q13535 whole entry): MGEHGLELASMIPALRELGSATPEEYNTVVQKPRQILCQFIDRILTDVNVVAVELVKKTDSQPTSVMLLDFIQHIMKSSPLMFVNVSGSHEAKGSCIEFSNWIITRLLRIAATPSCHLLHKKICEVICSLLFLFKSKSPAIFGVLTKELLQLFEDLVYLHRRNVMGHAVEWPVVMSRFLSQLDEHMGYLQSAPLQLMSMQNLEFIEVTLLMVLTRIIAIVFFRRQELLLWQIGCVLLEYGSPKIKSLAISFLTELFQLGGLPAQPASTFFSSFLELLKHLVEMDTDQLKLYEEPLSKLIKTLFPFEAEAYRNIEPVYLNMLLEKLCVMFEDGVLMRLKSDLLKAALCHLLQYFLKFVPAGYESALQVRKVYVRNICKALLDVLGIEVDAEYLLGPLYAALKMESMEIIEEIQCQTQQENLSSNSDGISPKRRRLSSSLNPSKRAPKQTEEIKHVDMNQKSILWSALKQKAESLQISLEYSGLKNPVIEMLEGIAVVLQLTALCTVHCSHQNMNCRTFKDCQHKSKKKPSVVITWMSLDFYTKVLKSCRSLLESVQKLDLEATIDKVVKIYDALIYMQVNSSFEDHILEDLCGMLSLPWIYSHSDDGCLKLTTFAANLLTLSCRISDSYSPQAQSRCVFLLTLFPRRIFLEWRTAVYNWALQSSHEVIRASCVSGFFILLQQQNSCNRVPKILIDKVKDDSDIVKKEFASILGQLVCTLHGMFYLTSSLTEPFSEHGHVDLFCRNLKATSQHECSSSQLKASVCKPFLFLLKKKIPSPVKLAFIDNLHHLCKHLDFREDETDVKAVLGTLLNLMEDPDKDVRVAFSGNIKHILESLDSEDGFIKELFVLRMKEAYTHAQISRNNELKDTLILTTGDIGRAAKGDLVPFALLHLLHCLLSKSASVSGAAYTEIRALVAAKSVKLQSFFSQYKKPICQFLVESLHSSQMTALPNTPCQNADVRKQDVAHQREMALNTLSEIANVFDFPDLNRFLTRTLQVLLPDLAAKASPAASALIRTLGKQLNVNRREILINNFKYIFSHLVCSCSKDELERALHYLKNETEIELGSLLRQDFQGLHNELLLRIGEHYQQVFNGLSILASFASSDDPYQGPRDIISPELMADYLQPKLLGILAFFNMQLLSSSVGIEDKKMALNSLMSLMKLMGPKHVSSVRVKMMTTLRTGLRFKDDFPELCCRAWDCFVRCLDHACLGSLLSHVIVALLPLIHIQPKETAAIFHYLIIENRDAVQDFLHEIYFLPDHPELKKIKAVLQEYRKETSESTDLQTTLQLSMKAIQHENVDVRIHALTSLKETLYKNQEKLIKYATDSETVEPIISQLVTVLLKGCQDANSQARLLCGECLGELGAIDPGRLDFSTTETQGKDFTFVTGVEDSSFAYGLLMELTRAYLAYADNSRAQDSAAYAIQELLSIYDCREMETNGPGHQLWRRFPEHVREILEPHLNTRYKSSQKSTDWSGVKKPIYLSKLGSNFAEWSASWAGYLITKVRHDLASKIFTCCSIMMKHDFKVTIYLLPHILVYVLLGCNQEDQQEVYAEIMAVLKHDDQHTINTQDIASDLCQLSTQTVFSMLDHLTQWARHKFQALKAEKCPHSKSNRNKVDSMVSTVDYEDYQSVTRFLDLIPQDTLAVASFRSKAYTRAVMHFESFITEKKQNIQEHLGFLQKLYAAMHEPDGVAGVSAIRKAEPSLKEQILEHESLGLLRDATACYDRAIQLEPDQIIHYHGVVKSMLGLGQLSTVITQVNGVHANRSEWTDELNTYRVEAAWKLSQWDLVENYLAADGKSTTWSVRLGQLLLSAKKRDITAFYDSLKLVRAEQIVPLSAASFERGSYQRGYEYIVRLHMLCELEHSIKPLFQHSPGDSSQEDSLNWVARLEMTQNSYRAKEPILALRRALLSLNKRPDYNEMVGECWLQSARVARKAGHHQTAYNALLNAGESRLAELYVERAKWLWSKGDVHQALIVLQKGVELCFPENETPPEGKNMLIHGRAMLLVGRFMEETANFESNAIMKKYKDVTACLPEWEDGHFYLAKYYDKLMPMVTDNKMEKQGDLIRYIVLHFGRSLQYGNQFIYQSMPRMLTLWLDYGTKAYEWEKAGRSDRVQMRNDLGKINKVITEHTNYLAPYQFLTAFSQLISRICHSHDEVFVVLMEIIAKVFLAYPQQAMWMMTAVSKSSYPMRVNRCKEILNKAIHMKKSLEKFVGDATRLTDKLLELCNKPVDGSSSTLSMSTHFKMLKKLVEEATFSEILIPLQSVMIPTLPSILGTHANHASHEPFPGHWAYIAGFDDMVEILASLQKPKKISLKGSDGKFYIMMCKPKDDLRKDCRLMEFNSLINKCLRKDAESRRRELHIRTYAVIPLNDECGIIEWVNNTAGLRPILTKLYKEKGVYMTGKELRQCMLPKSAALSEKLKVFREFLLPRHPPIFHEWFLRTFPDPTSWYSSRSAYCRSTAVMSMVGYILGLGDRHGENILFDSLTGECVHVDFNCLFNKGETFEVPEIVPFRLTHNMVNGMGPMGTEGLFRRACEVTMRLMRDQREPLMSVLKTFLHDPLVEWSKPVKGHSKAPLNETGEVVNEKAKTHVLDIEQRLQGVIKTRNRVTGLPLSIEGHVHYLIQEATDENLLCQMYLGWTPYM

| SMILES | Ki [nM] |
| --- | --- |
| CCS(=O)(=O)N1CCN(c2cnc(N)c(-c3cc4ccccc4o3)n2)CC1 [Compound I-29, 3-(benzofuran-2-yl)-5-(4-(ethylsulfonyl)piperazin-1-yl)pyrazin-2-amine] | 100 to 1000 |
| Cc1ccc2nc(-c3nc(N4CCN(c5ccccc5C#N)CC4)cnc3N)[nH]c2c1 [Compound I-50, 2-(4-(5-amino-6-(6-methyl-1H-benzo[d]imidazol-2-yl)pyrazin-2-yl)piperazin-1-yl)benzonitrile] | 1000 to 10000 |
| COC(=O)N1CC=C(c2cnc(N)c(-c3nc4ccccc4[nH]3)n2)CC1 [Compound I-244, methyl 4-(5-amino-6-(1H-benzo[d]imidazol-2-yl)pyrazin-2-yl)-5,6-dihydropyridine-1(2H)-carboxylate] | 100 to 1000 |
| CCS(=O)(=O)N1CCN(c2cnc(N)c(-c3cn4ccsc4n3)n2)CC1 [Compound I-62, 5-(4-(ethylsulfonyl)piperazin-1-yl)-3-(imidazo[2,1-b]thiazol-6-yl)pyrazin-2-amine] | 1000 to 10000 |
| CCS(=O)(=O)N1CCN(c2cnc(N)c(-c3nnc(-c4ccc(CNC)cc4)o3)n2)C[C@@H]1C [Compound I-345, 5-[(35)-4-Ethylsulfonyl-3-methyl-piperazin-1-yl]-3-[5-[4-(methylaminomethyl)phenyl]-1,3,4-oxadiazol-2-yl]pyrazin-2-amine] | < 100 |
| CN1CCC(C(=O)N2CC=C(c3cnc(N)c(-c4nc5ccccc5[nH]4)n3)CC2)CC1 [Compound I-78, (4-(5-amino-6-(1H-benzo[d]imidazol-2-yl)pyrazin-2-yl)-5,6-dihydropyridin-1(2H)-yl)(1-methylpiperidin-4-yl)methanone] | 100 to 1000 |
| Cc1ccc2nc(-c3nc(N4CCC(C(=O)c5ccccc5)CC4)cnc3N)[nH]c2c1 [Compound I-63, (1-(5-amino-6-(6-methyl-1H-benzo[d]imidazol-2-yl)pyrazin-2-yl)piperidin-4-yl)(phenyl)methanone] | 100 to 1000 |
| CCN1CCN(c2cnc(N)c(-c3nnc(-c4ccc(CNC)cc4)o3)n2)CC1 [Compound I-322, 5-(4-Ethylpiperazin-1-yl)-3-[5-[4-(methylaminomethyl)phenyl]-1,3,4-oxadiazol-2-yl]pyrazin-2-amine] | 100 to 1000 |
| COC1CCN(c2cnc(N)c(-c3nc4ccc(C)cc4[nH]3)n2)CC1 [Compound I-12, 5-(4-methoxypiperidin-1-yl)-3-(6-methyl-1H-benzo[d]imidazol-2-yl)pyrazin-2-amine] | 1000 to 10000 |
| CCS(=O)(=O)N1CC=C(c2cnc(N)c(-c3noc(-c4ccccc4)n3)n2)CC1 [Compound I-307, 5-(1-ethylsulfonyl-3,6-dihydro-2H-pyridin-4-yl)-3-(5-phenyl-1,2,4-oxadiazol-3-yl)pyrazin-2-amine] | 100 to 1000 |
| Nc1ncc(-n2ccc(=O)cc2)nc1-c1nnc(-c2ccccc2)o1 [Compound I-286, 1-[5-amino-6-(5-phenyl-1,3,4-oxadiazol-2-yl)pyrazin-2-yl]pyridin-4-one] | < 100 |
| CCC(=O)N1CCN(c2cnc(N)c(-c3nnc(-c4ccc(CNC)cc4)o3)n2)C[C@H]1C(C)C [Compound I-333, 1-[(2R)-4-[5-Amino-6-[5-[4-(methylaminomethyl)phenyl]-1,3,4-oxadiazol-2-yl]pyrazin-2-yl]-2-isopropyl-piperazin-1-yl]propan-1-one] | 100 to 1000 |
| CCS(=O)(=O)N1CC=C(c2cnc(N)c(-c3nc4cc(C)c(C)cc4[nH]3)n2)CC1 [Compound I-154, 3-(5,6-dimethyl-1H-benzo[d]imidazol-2-yl)-5-(1-(ethylsulfonyl)-1,2,3,6-tetrahydropyridin-4-yl)pyrazin-2-amine] | 100 to 1000 |
| Nc1ncc(C2=CCN(C(=O)N3CCCC3)CC2)nc1-c1nnc(-c2ccccc2)o1 [Compound I-226, (4-(5-amino-6-(5-phenyl-1,3,4-oxadiazol-2-yl)pyrazin-2-yl)-5,6-dihydropyridin-1(2H)-yl)(pyrrolidin-1-yl)methanone] | < 100 |
| CCS(=O)(=O)N1CCN(c2cnc(N)c(-c3nnc(-c4ccc(CNC)cc4)o3)n2)CC1(C)C [Compound I-328, 5-(4-Ethylsulfonyl-3,3-dimethyl-piperazin-1-yl)-3-[5-[4-(methylaminomethyl)phenyl]-1,3,4-oxadiazol-2-yl]pyrazin-2-amine] | 100 to 1000 |
| Nc1ncc(N2CCN(S(=O)(=O)c3ccsc3)CC2)nc1C(=O)Nc1ccccn1 [Compound I-117, 3-amino-N-(pyridin-2-yl)-6-(4-(thiophen-3-ylsulfonyl)piperazin-1-yl)pyrazine-2-carboxamide] | 100 to 1000 |
| CCS(=O)(=O)N1CCN(c2cnc(N)c(-c3nc4ccccc4s3)n2)CC1 [Compound I-17, 3-(benzo[d]thiazol-2-yl)-5-(4-(ethylsulfonyl)piperazin-1-yl)pyrazin-2-amine] | 100 to 1000 |

Now from value to compound:

| Ki [nM] | SMILES |
| --- | --- |
| 100 to 1000 | CCOC(=O)C1CC1c1cnc(N)c(-c2nnc(-c3ccccc3)o2)n1 (centres unmarked) [Compound I-337, Ethyl 2-(5-amino-6-(5-phenyl-1,3,4-oxadiazol-2-yl)pyrazin-2-yl)cyclopropanecarboxylate] |
| 100 to 1000 | CCS(=O)(=O)N1CC=C(c2cnc(N)c(C(=O)Nc3ccnc(C)c3)n2)CC1 [Compound I-166, 3-amino-6-(1-(ethylsulfonyl)-1,2,3,6-tetrahydropyridin-4-yl)-N-(2-methylpyridin-4-yl)pyrazine-2-carboxamide] |
| < 100 | Nc1ncc(C2=CCN(S(=O)(=O)c3cccnc3)CC2)nc1-c1nc2ccccc2[nH]1 [Compound I-241, 3-(1H-benzo[d]imidazol-2-yl)-5-(1-(pyridin-3-ylsulfonyl)-1,2,3,6-tetrahydropyridin-4-yl)pyrazin-2-amine] |
| 1000 to 10000 | CC#CCOC(=O)N1CCN(c2cnc(N)c(C(=O)Nc3ccccn3)n2)CC1 [Compound I-252, but-2-ynyl 4-(5-amino-6-(pyridin-2-ylcarbamoyl)pyrazin-2-yl)piperazine-1-carboxylate] |
| 100 to 1000 | CS(=O)(=O)N1CCN(c2cnc(N)c(C(=O)Nc3ccccn3)n2)CC1 [Compound I-219, 3-amino-6-(4-(methylsulfonyl)piperazin-1-yl)-N-(pyridin-2-yl)pyrazine-2-carboxamide] |
| 1000 to 10000 | CC(C)(C)C(=O)N1CCN(c2cnc(N)c(C(=O)Nc3ccccn3)n2)CC1 [Compound I-209, 3-amino-6-(4-(2,2-dimethylpropanoyl)piperazin-1-yl)-N-(pyridin-2-yl)pyrazine-2-carboxamide] |
| 1000 to 10000 | CCS(=O)(=O)N1CCC2(CCN(c3cnc(N)c(-c4nnc(-c5ccc(CNC)cc5)o4)n3)C2)C1 (centres unmarked) [Compound I-330, 5-(3-Ethylsulfonyl-3,7-diazaspiro[4.4]nonan-7-yl)-3-[5-[4-(methylaminomethyl)phenyl]-1,3,4-oxadiazol-2-yl]pyrazin-2-amine] |
| < 100 | Nc1ncc(C2=CCN(S(=O)(=O)c3cccs3)CC2)nc1-c1nnc(-c2ccccc2)o1 [Compound I-245, 3-(5-phenyl-1,3,4-oxadiazol-2-yl)-5-(1-(thiophen-2-ylsulfonyl)-1,2,3,6-tetrahydropyridin-4-yl)pyrazin-2-amine] |
| 100 to 1000 | CCC(=O)N1CCN(c2cnc(N)c(-c3nnc(-c4ccc(CNC)cc4)o3)n2)C[C@H]1C [Compound I-315, 1-[(2R)-4-[5-Amino-6-[5-[4-(methylaminomethyl)phenyl]-1,3,4-oxadiazol-2-yl]pyrazin-2-yl]-2-methyl-piperazin-1-yl]propan-1-one] |
| < 100 | CCS(=O)(=O)N1CC=C(c2cnc(N)c(-c3nc4c(F)cccc4[nH]3)n2)CC1 [Compound I-155, 5-(1-(ethylsulfonyl)-1,2,3,6-tetrahydropyridin-4-yl)-3-(4-fluoro-1H-benzo[d]imidazol-2-yl)pyrazin-2-amine] |
| 100 to 1000 | Nc1ncc(N2CCN(S(=O)(=O)c3ccoc3)CC2)nc1C(=O)Nc1ccccn1 [Compound I-119, 3-amino-6-(4-(furan-3-ylsulfonyl)piperazin-1-yl)-N-(pyridin-2-yl)pyrazine-2-carboxamide] |
| 1000 to 10000 | CCC(=O)N1CCN(c2cnc(N)c(-c3nnc(-c4ccc(CNC)cc4)o3)n2)CC1(C)C [Compound I-329, 1-[4-[5-Amino-6-[5-[4-(methylaminomethyl)phenyl]-1,3,4-oxadiazol-2-yl]pyrazin-2-yl]-2,2-dimethyl-piperazin-1-yl]propan-1-one] |
| 100 to 1000 | CNCc1ccc(-c2nnc(-c3nc(N4CCC5(CCNC5=O)CC4)cnc3N)o2)cc1 [Compound I-360, 8-(5-Amino-6-(5-(4-((methylamino)methyl)phenyl)-1,3,4-oxadiazol-2-yl)pyrazin-2-yl)-2,8-diazaspiro[4.5]decan-1-one] |
| 100 to 1000 | Nc1ncc(N2CCN(S(=O)(=O)c3ccoc3)CC2)nc1-c1nnc(-c2ccccc2)o1 [Compound I-90, 5-(4-(furan-3-ylsulfonyl)piperazin-1-yl)-3-(5-phenyl-1,3,4-oxadiazol-2-yl)pyrazin-2-amine] |
| 100 to 1000 | Nc1ncc(N2CCN(C(=O)c3ccccc3)CC2)nc1-c1nc2ccccc2[nH]1 [Compound I-208, (4-(5-amino-6-(1H-benzo[d]imidazol-2-yl)pyrazin-2-yl)piperazin-1-yl)(phenyl)methanone] |
| < 100 | CCS(=O)(=O)N1CC=C(c2cnc(N)c(C(=O)Nc3cc(C)ccn3)n2)CC1 [Compound I-167, 3-amino-6-(1-(ethylsulfonyl)-1,2,3,6-tetrahydropyridin-4-yl)-N-(4-methylpyridin-2-yl)pyrazine-2-carboxamide] |
| < 100 | CC(C)C(=O)N1CC=C(c2cnc(N)c(-c3nnc(-c4ccccc4)o3)n2)CC1 [Compound I-192, 1-(4-(5-amino-6-(5-phenyl-1,3,4-oxadiazol-2-yl)pyrazin-2-yl)-5,6-dihydropyridin-1(2H)-yl)-2-methylpropan-1-one] |
| < 100 | Nc1ncc(C2=CCN(C(=O)C3CC3)CC2)nc1-c1nc2ccccc2[nH]1 [Compound I-284, [4-[5-amino-6-(1H-benzimidazol-2-yl)pyrazin-2-yl]-3,6-dihydro-2H-pyridin-1-yl]-cyclopropyl-methanone] |
